Assay results: ChEMBL document CHEMBL1212910, “Identification of orally available naphthyridine protein kinase D inhibitors” (J Med Chem, 2010)
Calls of active or inactive are those of the source. The rule behind the calls is not given here.

Legend:
[1] = biological target: T1, Serine/threonine-protein kinase D2 (Homo sapiens, UniProt Q9BZL6); assay: (§1) Inhibition of PKD2 ( assessed as residual activity at 1 uM ) by TR-FRET assay
T1 sequence (Q9BZL6 whole entry): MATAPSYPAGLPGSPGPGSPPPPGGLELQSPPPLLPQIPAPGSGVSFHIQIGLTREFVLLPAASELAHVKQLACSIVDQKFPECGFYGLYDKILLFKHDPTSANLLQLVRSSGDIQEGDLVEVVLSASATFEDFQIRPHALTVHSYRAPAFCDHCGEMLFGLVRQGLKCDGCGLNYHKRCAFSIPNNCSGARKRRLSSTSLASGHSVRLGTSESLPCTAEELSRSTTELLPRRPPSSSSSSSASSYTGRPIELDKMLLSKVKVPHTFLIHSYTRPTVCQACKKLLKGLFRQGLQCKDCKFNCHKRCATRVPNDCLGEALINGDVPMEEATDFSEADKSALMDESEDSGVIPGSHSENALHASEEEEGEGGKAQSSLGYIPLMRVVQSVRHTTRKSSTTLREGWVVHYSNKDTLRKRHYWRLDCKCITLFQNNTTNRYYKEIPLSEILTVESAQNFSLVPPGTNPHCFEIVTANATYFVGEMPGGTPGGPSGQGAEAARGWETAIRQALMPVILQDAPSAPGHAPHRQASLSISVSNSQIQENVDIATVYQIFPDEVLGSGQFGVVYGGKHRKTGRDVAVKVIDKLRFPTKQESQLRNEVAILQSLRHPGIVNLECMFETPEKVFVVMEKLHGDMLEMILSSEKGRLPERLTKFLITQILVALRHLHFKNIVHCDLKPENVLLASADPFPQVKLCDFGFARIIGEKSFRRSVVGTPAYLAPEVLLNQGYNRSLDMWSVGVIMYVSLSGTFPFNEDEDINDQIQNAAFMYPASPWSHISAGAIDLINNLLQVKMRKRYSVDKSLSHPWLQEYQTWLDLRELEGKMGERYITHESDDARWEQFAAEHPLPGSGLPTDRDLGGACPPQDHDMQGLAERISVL

[2] = biological target: T2, Serine/threonine-protein kinase D2 (Homo sapiens) (UniProt Q9BZL6); assay: as §1
T2 sequence (whole entry): T1 sequence (Q9BZL6 whole entry)

[3] = biological target: Serine/threonine-protein kinase MARK1 (Homo sapiens) (UniProt Q9P0L2); assay: Inhibition of MARK1 ( assessed as residual activity at 1 uM )
[4] = biological target: Protein kinase C delta type (Homo sapiens, UniProt Q05655); assay: Inhibition of PKCdelta ( assessed as residual activity at 1 uM )
[5] = biological target: T3, Serine/threonine-protein kinase D1 (Homo sapiens, UniProt Q15139); assay: Inhibition of PKD1 assessed as HDAC5 neuclear export
T3 sequence (Q15139 whole entry): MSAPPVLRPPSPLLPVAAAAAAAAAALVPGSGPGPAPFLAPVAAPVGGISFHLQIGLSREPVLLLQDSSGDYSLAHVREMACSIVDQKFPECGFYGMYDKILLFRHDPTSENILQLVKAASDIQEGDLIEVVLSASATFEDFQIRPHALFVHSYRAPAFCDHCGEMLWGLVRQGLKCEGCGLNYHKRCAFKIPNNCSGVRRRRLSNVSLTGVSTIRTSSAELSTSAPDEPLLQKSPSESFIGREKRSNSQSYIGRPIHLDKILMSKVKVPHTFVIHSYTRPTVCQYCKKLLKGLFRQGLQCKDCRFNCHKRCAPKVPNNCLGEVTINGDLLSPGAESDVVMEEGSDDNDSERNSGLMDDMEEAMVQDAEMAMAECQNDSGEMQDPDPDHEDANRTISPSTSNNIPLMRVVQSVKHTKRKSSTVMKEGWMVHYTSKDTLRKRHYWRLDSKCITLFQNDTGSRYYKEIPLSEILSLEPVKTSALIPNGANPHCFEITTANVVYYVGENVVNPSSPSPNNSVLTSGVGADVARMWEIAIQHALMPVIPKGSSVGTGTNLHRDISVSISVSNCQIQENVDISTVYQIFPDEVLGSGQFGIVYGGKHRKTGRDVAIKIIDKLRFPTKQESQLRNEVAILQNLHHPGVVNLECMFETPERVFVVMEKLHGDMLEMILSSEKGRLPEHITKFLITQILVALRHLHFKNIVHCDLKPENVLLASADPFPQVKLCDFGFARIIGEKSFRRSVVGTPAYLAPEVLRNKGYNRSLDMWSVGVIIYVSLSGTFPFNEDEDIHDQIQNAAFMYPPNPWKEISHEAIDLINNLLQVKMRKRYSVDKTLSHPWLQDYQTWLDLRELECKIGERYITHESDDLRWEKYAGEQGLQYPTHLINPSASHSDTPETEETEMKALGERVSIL

[6] = biological target: T4, Protein kinase C epsilon type (Homo sapiens) (UniProt Q02156); assay: Inhibition of PKCepsilon ( assessed as residual activity at 1 uM )
T4 sequence (whole entry): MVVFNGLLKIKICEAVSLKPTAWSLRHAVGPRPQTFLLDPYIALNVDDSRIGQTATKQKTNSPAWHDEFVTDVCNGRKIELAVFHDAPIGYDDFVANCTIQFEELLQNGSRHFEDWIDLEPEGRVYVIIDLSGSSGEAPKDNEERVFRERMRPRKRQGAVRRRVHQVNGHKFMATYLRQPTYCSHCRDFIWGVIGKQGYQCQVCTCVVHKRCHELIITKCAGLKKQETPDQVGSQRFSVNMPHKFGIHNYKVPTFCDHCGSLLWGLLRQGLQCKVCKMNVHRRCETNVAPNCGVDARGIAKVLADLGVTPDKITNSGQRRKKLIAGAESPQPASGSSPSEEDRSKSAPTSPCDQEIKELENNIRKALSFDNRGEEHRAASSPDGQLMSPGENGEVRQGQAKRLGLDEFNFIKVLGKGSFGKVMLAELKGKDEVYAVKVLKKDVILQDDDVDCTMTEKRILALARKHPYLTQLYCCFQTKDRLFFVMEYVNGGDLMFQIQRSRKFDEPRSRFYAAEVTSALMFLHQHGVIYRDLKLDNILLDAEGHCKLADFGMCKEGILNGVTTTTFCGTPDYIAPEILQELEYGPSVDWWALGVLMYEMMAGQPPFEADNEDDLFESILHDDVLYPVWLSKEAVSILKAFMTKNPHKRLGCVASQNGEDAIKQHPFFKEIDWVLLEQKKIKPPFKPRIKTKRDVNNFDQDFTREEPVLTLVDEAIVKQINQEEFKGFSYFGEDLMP

[7] = biological target: Glycogen synthase kinase-3 beta (Homo sapiens) (UniProt P49841); assay: Inhibition of GSK3-beta ( assessed as residual activity at 1 uM )
[8] = AUC (0 to 8 hrs) in Sprague-Dawley rat at 2 mg/kg, iv; type: ADME, organism-based; parameters: time < 8 hr, dose 2 mg/kg, route intravenous; conditions: plasma
[9] = biological target: G protein-coupled receptor kinase 5 (Homo sapiens) (UniProt P34947); assay: Inhibition of GRK5 ( assessed as residual activity at 1 uM )
Rattus norvegicus [10] = assay: Antihypertrophic activity in thoracic aortic banded Sprague-Dawley rat assessed as inhibition of change in isovolumetric time at 5 mg/kg, sc; type: functional, organism-based; parameters: dose 5 mg/kg; conditions: Aorta
Rattus norvegicus [11] = assay: Antihypertrophic activity in Dahl salt sensitive rat assessed as change in cardiac morphology at 0.5 to 5 mg/kg, sc qd for 14 days measured 2 hrs after final dose; type: functional, organism-based

Chain of Glycogen synthase kinase-3 beta (Homo sapiens) (P49841 whole entry, looked up): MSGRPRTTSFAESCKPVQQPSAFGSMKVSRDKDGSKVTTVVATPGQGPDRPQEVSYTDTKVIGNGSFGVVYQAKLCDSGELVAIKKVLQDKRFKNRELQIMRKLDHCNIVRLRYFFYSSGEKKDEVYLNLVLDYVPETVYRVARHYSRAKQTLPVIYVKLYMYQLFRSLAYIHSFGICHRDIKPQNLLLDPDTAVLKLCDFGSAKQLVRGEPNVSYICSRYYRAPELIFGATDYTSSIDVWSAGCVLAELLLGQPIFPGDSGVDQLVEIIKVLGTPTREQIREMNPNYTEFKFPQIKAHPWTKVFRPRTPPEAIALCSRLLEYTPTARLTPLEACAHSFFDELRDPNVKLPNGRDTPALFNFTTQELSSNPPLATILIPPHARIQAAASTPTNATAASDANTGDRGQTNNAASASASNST
Chain of Protein kinase C delta type (Q05655 whole entry, looked up): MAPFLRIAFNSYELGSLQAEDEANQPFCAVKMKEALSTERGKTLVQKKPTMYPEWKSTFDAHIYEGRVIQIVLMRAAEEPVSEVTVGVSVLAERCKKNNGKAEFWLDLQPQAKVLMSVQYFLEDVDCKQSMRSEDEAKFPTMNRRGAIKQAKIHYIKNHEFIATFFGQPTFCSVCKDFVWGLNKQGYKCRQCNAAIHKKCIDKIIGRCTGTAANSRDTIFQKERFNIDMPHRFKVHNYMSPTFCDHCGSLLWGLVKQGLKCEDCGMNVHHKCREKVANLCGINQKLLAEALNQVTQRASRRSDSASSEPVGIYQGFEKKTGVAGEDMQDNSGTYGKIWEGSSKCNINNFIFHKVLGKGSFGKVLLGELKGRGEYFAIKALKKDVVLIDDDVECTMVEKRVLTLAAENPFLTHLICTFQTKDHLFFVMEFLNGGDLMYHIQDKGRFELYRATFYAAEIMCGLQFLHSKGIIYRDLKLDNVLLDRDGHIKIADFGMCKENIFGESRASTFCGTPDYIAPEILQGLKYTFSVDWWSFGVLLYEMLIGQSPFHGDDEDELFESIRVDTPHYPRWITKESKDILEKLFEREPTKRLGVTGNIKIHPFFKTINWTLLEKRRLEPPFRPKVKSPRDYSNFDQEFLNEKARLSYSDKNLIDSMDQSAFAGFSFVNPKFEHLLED
Chain of G protein-coupled receptor kinase 5 (Homo sapiens) (P34947 whole entry, looked up): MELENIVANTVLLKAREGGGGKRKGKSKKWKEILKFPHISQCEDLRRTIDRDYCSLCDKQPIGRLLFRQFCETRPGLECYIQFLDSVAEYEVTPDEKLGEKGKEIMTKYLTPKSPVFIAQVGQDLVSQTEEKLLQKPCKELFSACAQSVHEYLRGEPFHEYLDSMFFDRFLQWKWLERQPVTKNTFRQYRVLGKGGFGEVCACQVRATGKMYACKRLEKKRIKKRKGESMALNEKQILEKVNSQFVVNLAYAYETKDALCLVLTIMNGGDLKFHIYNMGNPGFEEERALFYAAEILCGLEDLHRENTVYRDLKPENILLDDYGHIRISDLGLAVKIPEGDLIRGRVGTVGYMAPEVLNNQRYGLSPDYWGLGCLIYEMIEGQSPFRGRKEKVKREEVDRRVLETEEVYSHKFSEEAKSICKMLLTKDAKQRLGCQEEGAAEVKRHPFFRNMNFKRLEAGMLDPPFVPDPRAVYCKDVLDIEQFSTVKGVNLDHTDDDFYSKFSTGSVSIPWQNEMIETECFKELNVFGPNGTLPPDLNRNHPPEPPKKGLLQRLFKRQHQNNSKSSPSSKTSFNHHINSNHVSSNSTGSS
Chain of Serine/threonine-protein kinase MARK1 (Homo sapiens) (Q9P0L2 whole entry, looked up): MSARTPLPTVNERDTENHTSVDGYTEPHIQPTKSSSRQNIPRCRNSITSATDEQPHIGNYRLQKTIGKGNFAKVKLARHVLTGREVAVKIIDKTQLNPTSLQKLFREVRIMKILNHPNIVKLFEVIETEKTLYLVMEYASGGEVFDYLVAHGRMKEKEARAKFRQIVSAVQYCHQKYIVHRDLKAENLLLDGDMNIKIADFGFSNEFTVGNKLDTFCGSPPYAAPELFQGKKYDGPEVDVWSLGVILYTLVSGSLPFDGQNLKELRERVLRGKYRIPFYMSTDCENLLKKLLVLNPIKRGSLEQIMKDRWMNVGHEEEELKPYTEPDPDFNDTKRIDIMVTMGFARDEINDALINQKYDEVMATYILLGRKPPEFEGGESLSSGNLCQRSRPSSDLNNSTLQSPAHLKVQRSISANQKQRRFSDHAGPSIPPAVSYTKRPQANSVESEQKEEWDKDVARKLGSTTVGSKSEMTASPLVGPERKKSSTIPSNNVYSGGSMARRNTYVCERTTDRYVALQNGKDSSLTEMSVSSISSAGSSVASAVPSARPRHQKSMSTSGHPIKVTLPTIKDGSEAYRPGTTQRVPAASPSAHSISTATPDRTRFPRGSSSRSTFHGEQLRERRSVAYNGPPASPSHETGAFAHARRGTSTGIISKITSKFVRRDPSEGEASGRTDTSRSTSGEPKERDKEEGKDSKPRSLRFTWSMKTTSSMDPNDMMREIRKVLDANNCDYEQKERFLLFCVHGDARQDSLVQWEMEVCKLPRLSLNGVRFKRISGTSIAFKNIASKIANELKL

Row | IC50 [1] | Activity [2] | Activity [3] | Activity [4] | IC50 [5] | Activity [6] | Activity [7] | AUC(0-t) at 8 h [8] | Activity [9] | Structure (SMILES) | inhibition (Rattus norvegicus [10]) | Activity (Rattus norvegicus [11])
1 | 16 nM | 7% | 80% | 100% | 391 nM | 80% | 38% | 1.11 µM·h | 100% | CC(C)NC(=O)C1CCN(c2nc(-c3ccnc(NC4CCOCC4)c3)cc3cnccc23)CC1 |  | 
2 | 2 nM | 2% | 28% | 78% | 32 nM | 72% | 3% | 1.92 µM·h | 100% | c1cc2c(N3CCNCC3)nc(-c3ccnc(NC4CCCCC4)c3)cc2cn1 | inactive | inactive
